{
  "source": "patent US20040198828A1",
  "about": "“Combinational use of long-acting and short-acting anti-histamines for ocular allergies” (priority 2003, published 2004)",
  "system": "eyes of allergic subjects challenged with allergen solution (birch, cat hair, cat dander)",
  "assay": "Conjunctival allergen challenge (CAC), onset of action and duration of action study",
  "assay_type": "in vivo, human",
  "conditions": "for Mean Differences (Active-Placebo), 15 Min Itching, Timepoint 1 / Mean Differences (Active-Placebo), 15 Min Itching, Timepoint 2 / Mean Differences (Active-Placebo), 15 Min Itching, Timepoint 3 / Mean Differences (Active-Placebo), 15 Min Redness, Timepoint 1 / Mean Differences (Active-Placebo), 15 Min Redness, Timepoint 2 / Mean Differences (Active-Placebo), 15 Min Redness, Timepoint 3: challenge 15 min after one drop; for Mean Differences (Active-Placebo), 16 hr Itching, Timepoint 1 / Mean Differences (Active-Placebo), 16 hr Itching, Timepoint 2 / Mean Differences (Active-Placebo), 16 hr Itching, Timepoint 3 / Mean Differences (Active-Placebo), 16 hr Redness, Timepoint 1 / Mean Differences (Active-Placebo), 16 hr Redness, Timepoint 2 / Mean Differences (Active-Placebo), 16 hr Redness, Timepoint 3: challenge 16 hr after one drop",
  "experimental": "These following studies were performed using the standard conjunctival allergen challenge model as described in Abelson et al., Arch Ophthalmol. 108(1): 84-88 (1990), and Abelson et al., Curr Allergy Asthma Rep. 3(4): 363-8 (2003). Each experiment was a double-masked, contralateral placebo controlled, single center, onset of action and duration of action allergen challenge study.\nA baseline ocular exam was performed to rule out any subjects with any ocular surface anomaly that would interfere with evaluations. A bilateral conjunctival allergen challenge was performed with the allergen to which the subject was known to be allergic to as evidenced by a skin test or previous conjunctival allergen challenge.\nSubjects were administered one drop of masked study medication in each eye as described in the below tables (see Table 1-3). A period of at least 1 week was left between experiments on each single subject. At the specified timepoints, subjects were challenged bilaterally with one drop of allergen solution (allergen used were birch, cat hair, cat dander) at a concentration that was known to historically elicit a positive response (Abelson et al., Arch Ophthalmol. 108(1): 84-88 (1990)). Phosphate buffered saline (PBS) was used as placebo. A historic positive response to the challenge was defined as at least a +2.0 itching and +2.0 redness on scales 0-4, with 0 being none and 4 being severe.\nSubjects were asked to grade their ocular itching on standardized scales described in Abelson et al., Arch Ophthalmol. 108(1): 84-88 (1990), scoring was performed from a scale of 0-4 at 3, 5, and 7 minutes post-challenge. Redness was graded by a masked observer on standardized scales 0-4 at 10, 15, and 20 minutes post-challenge. Digital photographs were taken of each eye at the 15 minute timepoint. If needed, subjects were administered one drop of a currently marketed topical anti-allergic medication (Naphcon A™: pheniramine maleate 0.3%/naphthazoline hydrochloride 0.025% ophthalmic solution) to relieve any immediate discomfort at the end of the visit.\nData from all subjects who completed any post-challenge examination was evaluable for that experiment and treatment. Mean itching and redness scores were compared between the treated eye and placebo eye to determine an efficacy score.",
  "key": {"[1]": {"conditions": "itching scale 0-4, timepoint 1 of 3, 5, 7 min post-challenge"}, "[2]": {"conditions": "itching scale 0-4, timepoint 2 of 3, 5, 7 min post-challenge"}, "[3]": {"conditions": "itching scale 0-4, timepoint 3 of 3, 5, 7 min post-challenge"}, "[4]": {"conditions": "redness scale 0-4, timepoint 1 of 10, 15, 20 min post-challenge"}, "[5]": {"conditions": "redness scale 0-4, timepoint 2 of 10, 15, 20 min post-challenge"}, "[6]": {"conditions": "redness scale 0-4, timepoint 3 of 10, 15, 20 min post-challenge"}},
  "data": [
    {"compound": "c1ccc(CN(CC2=NCCN2)c2ccccc2)cc1", "note": "[Antazoline 0.5%, antazoline]", "values": [
      {"measurement": "Mean Differences (Active-Placebo), 15 Min Itching, Timepoint 1", "setting": "[1]", "value": "−2.33"},
      {"measurement": "Mean Differences (Active-Placebo), 15 Min Itching, Timepoint 2", "setting": "[2]", "value": "−2.83"},
      {"measurement": "Mean Differences (Active-Placebo), 15 Min Itching, Timepoint 3", "setting": "[3]", "value": "−2.5"},
      {"measurement": "Mean Differences (Active-Placebo), 15 Min Redness, Timepoint 1", "setting": "[4]", "value": "−0.83"},
      {"measurement": "Mean Differences (Active-Placebo), 15 Min Redness, Timepoint 2", "setting": "[5]", "value": "−0.83"},
      {"measurement": "Mean Differences (Active-Placebo), 15 Min Redness, Timepoint 3", "setting": "[6]", "value": "−1.00"}
    ]},
    {"compound": "CN1CCC(=C2c3ccccc3CC(=O)c3sccc32)CC1", "note": "[Keto 0.05%, ketotifen]", "values": [
      {"measurement": "Mean Differences (Active-Placebo), 15 Min Itching, Timepoint 1", "setting": "[1]", "value": "−2.00"},
      {"measurement": "Mean Differences (Active-Placebo), 15 Min Itching, Timepoint 2", "setting": "[2]", "value": "−2.33"},
      {"measurement": "Mean Differences (Active-Placebo), 15 Min Itching, Timepoint 3", "setting": "[3]", "value": "−2.00"},
      {"measurement": "Mean Differences (Active-Placebo), 15 Min Redness, Timepoint 1", "setting": "[4]", "value": "−1.50"},
      {"measurement": "Mean Differences (Active-Placebo), 15 Min Redness, Timepoint 2", "setting": "[5]", "value": "−1.17"},
      {"measurement": "Mean Differences (Active-Placebo), 15 Min Redness, Timepoint 3", "setting": "[6]", "value": "−1.50"},
      {"measurement": "Mean Differences (Active-Placebo), 16 hr Itching, Timepoint 1", "setting": "[1]", "value": 0.75},
      {"measurement": "Mean Differences (Active-Placebo), 16 hr Itching, Timepoint 2", "setting": "[2]", "value": 0.25},
      {"measurement": "Mean Differences (Active-Placebo), 16 hr Itching, Timepoint 3", "setting": "[3]", "value": 0.25},
      {"measurement": "Mean Differences (Active-Placebo), 16 hr Redness, Timepoint 1", "setting": "[4]", "value": 0.5},
      {"measurement": "Mean Differences (Active-Placebo), 16 hr Redness, Timepoint 2", "setting": "[5]", "value": 0.5},
      {"measurement": "Mean Differences (Active-Placebo), 16 hr Redness, Timepoint 3", "setting": "[6]", "value": 0.25}
    ]},
    {"compound": "CN(C)CCC(c1ccccc1)c1ccccn1", "note": "(stereo not drawn) [Pheniramine 0.5%, pheniramine]", "values": [
      {"measurement": "Mean Differences (Active-Placebo), 15 Min Itching, Timepoint 1", "setting": "[1]", "value": "−2.67"},
      {"measurement": "Mean Differences (Active-Placebo), 15 Min Itching, Timepoint 2", "setting": "[2]", "value": "−2.33"},
      {"measurement": "Mean Differences (Active-Placebo), 15 Min Itching, Timepoint 3", "setting": "[3]", "value": "−2.17"},
      {"measurement": "Mean Differences (Active-Placebo), 15 Min Redness, Timepoint 1", "setting": "[4]", "value": "−1.67"},
      {"measurement": "Mean Differences (Active-Placebo), 15 Min Redness, Timepoint 2", "setting": "[5]", "value": "−1.83"},
      {"measurement": "Mean Differences (Active-Placebo), 15 Min Redness, Timepoint 3", "setting": "[6]", "value": "−1.67"},
      {"measurement": "Mean Differences (Active-Placebo), 16 hr Itching, Timepoint 1", "setting": "[1]", "value": "−0.25"},
      {"measurement": "Mean Differences (Active-Placebo), 16 hr Itching, Timepoint 2", "setting": "[2]", "value": 0},
      {"measurement": "Mean Differences (Active-Placebo), 16 hr Itching, Timepoint 3", "setting": "[3]", "value": 0},
      {"measurement": "Mean Differences (Active-Placebo), 16 hr Redness, Timepoint 1", "setting": "[4]", "value": 0.25},
      {"measurement": "Mean Differences (Active-Placebo), 16 hr Redness, Timepoint 2", "setting": "[5]", "value": 0.25},
      {"measurement": "Mean Differences (Active-Placebo), 16 hr Redness, Timepoint 3", "setting": "[6]", "value": 0.25}
    ]},
    {"compound": "CN1CCCC(n2nc(Cc3ccc(Cl)cc3)c3ccccc3c2=O)CC1", "note": "(stereo not drawn) [Azelastine 0.05%, azelastine]", "values": [
      {"measurement": "Mean Differences (Active-Placebo), 15 Min Itching, Timepoint 1", "setting": "[1]", "value": "−2.5"},
      {"measurement": "Mean Differences (Active-Placebo), 15 Min Itching, Timepoint 2", "setting": "[2]", "value": "−2.5"},
      {"measurement": "Mean Differences (Active-Placebo), 15 Min Itching, Timepoint 3", "setting": "[3]", "value": "−2.5"},
      {"measurement": "Mean Differences (Active-Placebo), 15 Min Redness, Timepoint 1", "setting": "[4]", "value": 0},
      {"measurement": "Mean Differences (Active-Placebo), 15 Min Redness, Timepoint 2", "setting": "[5]", "value": 0},
      {"measurement": "Mean Differences (Active-Placebo), 15 Min Redness, Timepoint 3", "setting": "[6]", "value": 0},
      {"measurement": "Mean Differences (Active-Placebo), 4 hr Itching, Timepoint 1", "setting": "challenge 4 hr after one drop, itching scale 0-4, timepoint 1 of 3, 5, 7 min post-challenge", "value": "−0.5"},
      {"measurement": "Mean Differences (Active-Placebo), 4 hr Itching, Timepoint 2", "setting": "challenge 4 hr after one drop, itching scale 0-4, timepoint 2 of 3, 5, 7 min post-challenge", "value": "−1.0"},
      {"measurement": "Mean Differences (Active-Placebo), 4 hr Itching, Timepoint 3", "setting": "challenge 4 hr after one drop, itching scale 0-4, timepoint 3 of 3, 5, 7 min post-challenge", "value": "−1.0"},
      {"measurement": "Mean Differences (Active-Placebo), 4 hr Redness, Timepoint 1", "setting": "challenge 4 hr after one drop, redness scale 0-4, timepoint 1 of 10, 15, 20 min post-challenge", "value": "+0.5"},
      {"measurement": "Mean Differences (Active-Placebo), 4 hr Redness, Timepoint 2", "setting": "challenge 4 hr after one drop, redness scale 0-4, timepoint 2 of 10, 15, 20 min post-challenge", "value": "+1.0"},
      {"measurement": "Mean Differences (Active-Placebo), 4 hr Redness, Timepoint 3", "setting": "challenge 4 hr after one drop, redness scale 0-4, timepoint 3 of 10, 15, 20 min post-challenge", "value": "+1.0"}
    ]}
  ]
}
